We go through 3 molecules from PMC3138047 (Evidence-based Complementary and Alternative Medicine : eCAM, 2011).

A value given as a limit tells only on which side of the number the result lay.

Holding throughout (test): [3H]-dTTP incorporation into poly(dA)/oligo(dT)[…]
What all share (type): biochemical

The target in assay [1] is T1, human pol κ (Homo sapiens, UniProt Q9UBT6).
T1 construct: gene POLK; truncated, residues 1-560, C-terminal 6xHis tag, produced in E. coli
T1 sequence (Q9UBT6 1-560): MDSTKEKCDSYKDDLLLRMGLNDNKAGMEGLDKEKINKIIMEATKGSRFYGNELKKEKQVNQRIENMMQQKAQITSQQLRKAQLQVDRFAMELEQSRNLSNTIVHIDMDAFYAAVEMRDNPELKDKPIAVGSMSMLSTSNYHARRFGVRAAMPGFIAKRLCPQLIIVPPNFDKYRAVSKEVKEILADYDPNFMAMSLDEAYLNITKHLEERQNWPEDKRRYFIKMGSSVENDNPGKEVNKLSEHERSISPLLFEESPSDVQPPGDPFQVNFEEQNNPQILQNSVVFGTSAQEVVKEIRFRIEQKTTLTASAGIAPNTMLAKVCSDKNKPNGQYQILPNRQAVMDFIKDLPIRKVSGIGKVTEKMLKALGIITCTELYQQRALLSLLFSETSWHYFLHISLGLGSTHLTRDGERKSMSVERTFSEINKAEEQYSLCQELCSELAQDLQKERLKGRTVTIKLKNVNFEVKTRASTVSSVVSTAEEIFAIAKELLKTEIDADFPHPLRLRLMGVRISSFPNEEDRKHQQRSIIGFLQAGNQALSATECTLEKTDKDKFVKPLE
Conditions: read-out: relative pol activity at 100 μM.

The target in a further assay is T2, calf pol α (Bos taurus, UniProt A0AAA9THK8).
T2 construct: gene POLA1; with DNA polymerase alpha subunit B; DNA primase small subunit; DNA primase large subunit
T2 sequence (A0AAA9THK8 1-1487): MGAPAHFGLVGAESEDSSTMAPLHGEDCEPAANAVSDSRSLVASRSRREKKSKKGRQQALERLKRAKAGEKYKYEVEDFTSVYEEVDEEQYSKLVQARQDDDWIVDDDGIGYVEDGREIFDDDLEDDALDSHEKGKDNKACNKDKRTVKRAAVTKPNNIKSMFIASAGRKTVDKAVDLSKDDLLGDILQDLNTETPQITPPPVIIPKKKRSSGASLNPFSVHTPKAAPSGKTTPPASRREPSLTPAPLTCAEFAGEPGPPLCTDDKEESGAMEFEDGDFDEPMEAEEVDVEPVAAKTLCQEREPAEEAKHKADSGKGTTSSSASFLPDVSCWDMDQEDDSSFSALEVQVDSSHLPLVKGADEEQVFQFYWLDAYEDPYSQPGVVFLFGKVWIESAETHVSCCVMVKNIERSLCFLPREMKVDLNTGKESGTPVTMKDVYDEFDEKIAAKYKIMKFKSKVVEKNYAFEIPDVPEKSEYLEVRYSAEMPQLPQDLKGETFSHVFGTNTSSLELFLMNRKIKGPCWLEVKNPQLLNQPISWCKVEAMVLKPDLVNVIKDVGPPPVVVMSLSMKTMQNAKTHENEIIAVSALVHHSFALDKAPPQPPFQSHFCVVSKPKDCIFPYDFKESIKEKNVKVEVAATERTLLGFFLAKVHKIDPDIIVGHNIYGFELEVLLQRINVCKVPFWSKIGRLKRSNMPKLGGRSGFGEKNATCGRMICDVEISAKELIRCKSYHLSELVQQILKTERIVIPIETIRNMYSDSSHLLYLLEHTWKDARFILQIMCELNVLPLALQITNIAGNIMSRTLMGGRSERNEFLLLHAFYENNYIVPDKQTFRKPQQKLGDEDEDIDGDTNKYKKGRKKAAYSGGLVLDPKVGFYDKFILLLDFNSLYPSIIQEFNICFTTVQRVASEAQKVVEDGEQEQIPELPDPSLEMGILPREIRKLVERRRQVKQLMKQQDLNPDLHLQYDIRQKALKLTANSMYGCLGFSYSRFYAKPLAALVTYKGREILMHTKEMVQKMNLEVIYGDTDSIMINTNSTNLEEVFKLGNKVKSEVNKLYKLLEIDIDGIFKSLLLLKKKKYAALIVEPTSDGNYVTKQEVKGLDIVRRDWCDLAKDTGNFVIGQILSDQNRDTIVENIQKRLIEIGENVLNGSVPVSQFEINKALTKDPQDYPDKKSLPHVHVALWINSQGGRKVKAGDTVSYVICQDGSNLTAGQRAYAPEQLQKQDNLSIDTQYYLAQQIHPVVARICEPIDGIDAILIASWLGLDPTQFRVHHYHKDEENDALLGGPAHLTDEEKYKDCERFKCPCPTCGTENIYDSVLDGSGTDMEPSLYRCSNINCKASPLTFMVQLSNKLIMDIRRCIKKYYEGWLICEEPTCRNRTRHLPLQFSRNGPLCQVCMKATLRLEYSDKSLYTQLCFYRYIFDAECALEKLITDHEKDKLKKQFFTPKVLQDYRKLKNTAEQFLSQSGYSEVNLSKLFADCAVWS
T2 sequence (Q58D13 whole entry partner): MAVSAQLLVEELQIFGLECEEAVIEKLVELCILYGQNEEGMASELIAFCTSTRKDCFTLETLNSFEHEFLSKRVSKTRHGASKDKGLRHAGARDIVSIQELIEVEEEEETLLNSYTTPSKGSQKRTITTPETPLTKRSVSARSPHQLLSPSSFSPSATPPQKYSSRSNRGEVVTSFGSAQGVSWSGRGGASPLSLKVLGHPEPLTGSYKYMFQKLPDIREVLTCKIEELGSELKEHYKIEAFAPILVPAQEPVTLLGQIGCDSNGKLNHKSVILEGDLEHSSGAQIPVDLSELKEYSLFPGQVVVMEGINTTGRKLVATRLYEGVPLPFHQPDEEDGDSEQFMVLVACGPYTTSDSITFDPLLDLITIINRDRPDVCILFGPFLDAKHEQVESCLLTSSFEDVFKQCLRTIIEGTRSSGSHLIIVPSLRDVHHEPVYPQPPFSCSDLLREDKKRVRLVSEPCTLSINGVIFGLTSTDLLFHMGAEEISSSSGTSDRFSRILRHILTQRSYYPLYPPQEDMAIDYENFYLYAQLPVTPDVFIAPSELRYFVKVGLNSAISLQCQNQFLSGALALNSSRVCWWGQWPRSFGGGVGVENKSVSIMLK
T2 sequence (A0A3Q1MF00 1-418 partner): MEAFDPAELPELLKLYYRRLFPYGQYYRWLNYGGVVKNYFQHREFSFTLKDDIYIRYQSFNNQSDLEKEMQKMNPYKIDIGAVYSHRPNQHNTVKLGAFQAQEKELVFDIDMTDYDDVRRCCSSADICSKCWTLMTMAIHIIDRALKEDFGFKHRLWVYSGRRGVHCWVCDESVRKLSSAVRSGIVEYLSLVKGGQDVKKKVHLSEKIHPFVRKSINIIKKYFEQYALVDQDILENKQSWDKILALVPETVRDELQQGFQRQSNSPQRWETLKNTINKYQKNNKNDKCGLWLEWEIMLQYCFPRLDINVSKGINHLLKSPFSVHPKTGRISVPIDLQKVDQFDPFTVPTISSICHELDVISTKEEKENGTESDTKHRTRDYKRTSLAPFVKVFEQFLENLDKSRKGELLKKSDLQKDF
T2 sequence (A0JNF4 1-506 partner): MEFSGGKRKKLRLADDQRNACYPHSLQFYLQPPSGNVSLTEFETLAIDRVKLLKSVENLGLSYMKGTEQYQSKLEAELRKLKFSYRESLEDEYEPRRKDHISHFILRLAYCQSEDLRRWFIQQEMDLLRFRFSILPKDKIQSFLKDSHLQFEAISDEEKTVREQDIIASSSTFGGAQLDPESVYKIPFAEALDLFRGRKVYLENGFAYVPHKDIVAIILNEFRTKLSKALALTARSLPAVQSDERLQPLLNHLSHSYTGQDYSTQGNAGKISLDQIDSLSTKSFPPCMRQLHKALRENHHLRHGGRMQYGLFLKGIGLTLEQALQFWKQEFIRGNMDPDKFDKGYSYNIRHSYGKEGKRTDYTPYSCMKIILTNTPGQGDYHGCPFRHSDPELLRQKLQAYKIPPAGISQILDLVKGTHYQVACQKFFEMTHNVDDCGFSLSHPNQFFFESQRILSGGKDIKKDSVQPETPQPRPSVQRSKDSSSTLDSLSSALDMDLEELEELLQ
The settings on record: read-out: relative pol activity at 100 μM.

Assay [2] concerns the target T3, human pol λ (Homo sapiens, UniProt Q9UGP5).
T3 construct: gene POLL; recombinant, His-tagged
T3 sequence (Q9UGP5 1-575): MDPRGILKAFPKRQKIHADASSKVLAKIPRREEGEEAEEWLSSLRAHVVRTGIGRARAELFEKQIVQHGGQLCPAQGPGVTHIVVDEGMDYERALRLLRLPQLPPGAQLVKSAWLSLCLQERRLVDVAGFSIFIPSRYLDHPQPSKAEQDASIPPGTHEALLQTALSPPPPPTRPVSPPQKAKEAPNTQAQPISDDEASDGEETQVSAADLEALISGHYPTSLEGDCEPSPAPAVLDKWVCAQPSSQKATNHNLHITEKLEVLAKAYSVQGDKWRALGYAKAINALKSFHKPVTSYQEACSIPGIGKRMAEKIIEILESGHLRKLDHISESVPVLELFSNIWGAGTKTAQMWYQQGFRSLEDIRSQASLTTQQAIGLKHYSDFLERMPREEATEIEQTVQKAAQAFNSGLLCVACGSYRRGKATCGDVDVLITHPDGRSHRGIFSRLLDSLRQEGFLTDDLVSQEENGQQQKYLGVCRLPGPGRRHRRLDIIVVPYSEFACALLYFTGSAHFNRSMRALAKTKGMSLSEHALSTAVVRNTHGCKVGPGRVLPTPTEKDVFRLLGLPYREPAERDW
Conditions: read-out: relative pol activity at 100 μM.

For assay [3], the target named is T1, human pol κ.
The target in a further assay is T4, human pol γ (Homo sapiens, UniProt P54098).
T4 construct: gene POLG
T4 sequence (P54098 1-1239): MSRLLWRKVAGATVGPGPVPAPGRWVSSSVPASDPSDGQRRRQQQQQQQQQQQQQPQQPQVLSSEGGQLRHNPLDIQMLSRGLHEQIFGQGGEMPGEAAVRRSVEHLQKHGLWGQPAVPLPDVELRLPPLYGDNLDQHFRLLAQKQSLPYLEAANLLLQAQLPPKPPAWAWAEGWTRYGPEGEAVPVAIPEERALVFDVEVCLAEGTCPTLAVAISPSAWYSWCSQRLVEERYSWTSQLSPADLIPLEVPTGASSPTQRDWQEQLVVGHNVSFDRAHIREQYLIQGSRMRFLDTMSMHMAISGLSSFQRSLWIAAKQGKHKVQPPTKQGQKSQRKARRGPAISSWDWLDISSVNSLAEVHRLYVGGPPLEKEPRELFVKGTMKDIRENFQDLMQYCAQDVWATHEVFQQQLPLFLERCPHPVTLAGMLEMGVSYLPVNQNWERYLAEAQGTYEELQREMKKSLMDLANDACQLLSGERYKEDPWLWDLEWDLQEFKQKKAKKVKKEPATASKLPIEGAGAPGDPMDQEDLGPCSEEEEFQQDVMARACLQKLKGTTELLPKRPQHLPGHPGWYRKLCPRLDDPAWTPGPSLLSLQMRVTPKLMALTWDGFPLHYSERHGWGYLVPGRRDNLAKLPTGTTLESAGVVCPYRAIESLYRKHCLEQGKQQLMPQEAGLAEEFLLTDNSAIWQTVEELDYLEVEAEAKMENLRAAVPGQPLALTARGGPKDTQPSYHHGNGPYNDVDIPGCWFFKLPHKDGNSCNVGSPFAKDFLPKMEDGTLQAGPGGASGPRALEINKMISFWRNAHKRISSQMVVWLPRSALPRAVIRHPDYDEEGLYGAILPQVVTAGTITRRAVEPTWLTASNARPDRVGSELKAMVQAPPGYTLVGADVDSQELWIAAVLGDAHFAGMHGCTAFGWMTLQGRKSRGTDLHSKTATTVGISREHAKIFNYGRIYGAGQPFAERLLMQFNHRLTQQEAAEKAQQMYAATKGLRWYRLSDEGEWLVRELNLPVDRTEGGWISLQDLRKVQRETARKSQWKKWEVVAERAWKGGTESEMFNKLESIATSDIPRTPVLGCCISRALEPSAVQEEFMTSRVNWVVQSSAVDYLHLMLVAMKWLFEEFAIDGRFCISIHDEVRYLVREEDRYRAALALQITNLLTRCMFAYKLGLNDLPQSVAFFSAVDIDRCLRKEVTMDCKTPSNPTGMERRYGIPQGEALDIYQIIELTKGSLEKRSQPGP

Assay [4] concerns the target T3, human pol λ.

On to `CC1(C)[C@@H](O[C@H]2O[C@H](C(=O)O)[C@@H](O)[C@H](O)[C@H]2O[C@@H]2O[C@H](C(=O)O)[C@@H](O)[C@H](O)[C@H]2O)CC[C@]2(C)[C@H]3C(=O)C=C4[C@@H]5C[C@@](C)(C(=O)O)CC[C@]5(C)CC[C@@]4(C)[C@]3(C)CC[C@@H]12` [compound 1, 3-O-(2-O-β-D-glucopyranuronosyl-α-D-glucopyranuronosyl)-18β-glycyrrhetinic acid], for which the activity at 100 µM on human pol κ [1], on calf pol α and on human pol λ [2] was less than 50% each time.
With `CC1(C)[C@@H](O[C@@H]2O[C@H](C(=O)O)[C@@H](O)[C@H](O)[C@H]2O[C@@H]2O[C@H](C(=O)O)[C@@H](O)[C@H](O)[C@H]2O)CC[C@]2(C)[C@H]3C(=O)C=C4[C@@H]5C[C@@](C)(C(=O)O)CC[C@]5(C)CC[C@@]4(C)[C@]3(C)CC[C@@H]12` [compound 2, dipotassium glycyrrhizate], the activity at 100 µM at calf pol α and on human pol λ [2] was less than 50% throughout.
For the molecule `CC1(C)[C@@H](O)CC[C@]2(C)[C@H]3C(=O)C=C4[C@@H]5C[C@@](C)(C(=O)O)CC[C@]5(C)CC[C@@]4(C)[C@]3(C)CC[C@@H]12` [compound 3, Glycyrrhetinic acid], the IC50 at human pol κ [3] was 15.8 µM; against human pol γ, 19.3 µM; on human pol λ [4] it was 13.7 µM.

In general, IC50 refers to the midpoint of a concentration-inhibition curve. Low values mean greater potency, high ones weaker potency.
